US12018001B2, “Pyrimidine cyclohexenyl glucocorticoid receptor modulators” (priority 2018, dated 2024)

Target: T1, glucocorticoid receptor (Homo sapiens, UniProt P04150)
T1 construct: host or cells: HepG2
T1 sequence (P04150 1-777): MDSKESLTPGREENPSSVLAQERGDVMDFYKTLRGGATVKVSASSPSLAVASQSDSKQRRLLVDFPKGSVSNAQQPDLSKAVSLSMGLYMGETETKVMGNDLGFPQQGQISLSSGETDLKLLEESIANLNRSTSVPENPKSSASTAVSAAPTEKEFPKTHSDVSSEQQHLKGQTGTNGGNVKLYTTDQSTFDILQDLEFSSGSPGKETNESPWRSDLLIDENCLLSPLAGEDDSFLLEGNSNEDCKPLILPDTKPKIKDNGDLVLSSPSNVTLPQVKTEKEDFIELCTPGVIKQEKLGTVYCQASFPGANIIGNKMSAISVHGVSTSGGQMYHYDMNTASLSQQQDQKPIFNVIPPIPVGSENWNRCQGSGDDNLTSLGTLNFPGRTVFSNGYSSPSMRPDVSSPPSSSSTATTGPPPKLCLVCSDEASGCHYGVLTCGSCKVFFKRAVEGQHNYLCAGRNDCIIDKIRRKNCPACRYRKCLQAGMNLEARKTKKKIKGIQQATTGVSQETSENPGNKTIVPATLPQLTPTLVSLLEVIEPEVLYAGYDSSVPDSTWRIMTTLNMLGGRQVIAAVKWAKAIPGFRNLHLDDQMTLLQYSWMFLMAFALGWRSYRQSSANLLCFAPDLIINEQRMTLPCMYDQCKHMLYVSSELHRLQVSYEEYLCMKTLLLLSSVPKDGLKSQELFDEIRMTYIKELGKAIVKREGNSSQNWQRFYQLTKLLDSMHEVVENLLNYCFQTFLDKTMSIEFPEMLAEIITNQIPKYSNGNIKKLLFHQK
Test: Hep G2 TAT assay: induction of TAT by dexamethasone in HepG2 cells
Format: cell-based
Procedure: Glucocorticoid mediated activation of TAT occurs by transactivation of glucocorticoid response elements in the TAT promoter by glucocorticoid receptor-agonist complex.
TAT activity was measured as outlined in the literature by A. Ali et al., J. Med. Chem., 2004, 47, 2441-2452.
HepG2 cells were cultured using MEME media supplemented with 10% (v/v) foetal bovine serum; 2 mM L-glutamine and 1% (v/v) NEAA at 37° C., 5%/95% (v/v) CO2/air. The HepG2 cells were counted and adjusted to yield a density of 0.125×10^6 cells/ml in RPMI 1640 without phenol red, 10% (v/v) charcoal stripped FBS, 2 mM L-glutamine and seeded at 25,000 cells/well in 200 μl into 96 well, sterile, tissue culture micro titre plates, and incubated at 37° C., 5% CO2 for 24 hours
Growth media was removed and replaced with assay media {RPMI 1640 without phenol red, 2 mM L-glutamine+10 μM forskolin}. […] Compounds were serially half log diluted in 100% (v/v) dimethylsulphoxide from a 10 mM stock.
HepG2 cells were then lysed with 30 μl of cell lysis buffer containing a protease inhibitor cocktail for 15 minutes at 4° C. 155 μl of substrate mixture was then added containing 5.4 mM Tyrosine sodium salt, 10.8 mM alpha ketoglutarate and 0.06 mM pyridoxal 5′ phosphate in 0.1 M potassium phosphate buffer (pH 7.4). After 2 hours incubation at 37° C. the reaction was terminated by the addition of 15 μl of 10 M aqueous potassium hydroxide solution, and the plates incubated for a further 30 minutes at 37° C. The TAT activity product was measured by absorbance at λ 340 nm.
[compound] and fitting the data to a 4 parameter logistic equation.

Row | Structure (SMILES) | Ki [nM]
1 | O=c1[nH]c(C2CC=C(c3ccc(OC(F)(F)F)c(F)c3F)CC2)c(Cc2ccccc2)c(=O)[nH]1 (centres unmarked) [Example 92] | 803
2 | Cc1c(F)cccc1C1=CCC(c2[nH]c(=O)[nH]c(=O)c2Cc2ccccc2)CC1 (centres unmarked) [Example 24] | 33
3 | O=c1[nH]c(C2CC=C(c3ccc(OC(F)(F)F)cc3Cl)CC2)c(Cc2ccccc2)c(=O)[nH]1 (centres unmarked) [Example 60] | 41
4 | CC(C)n1cc(C2=CCC(c3[nH]c(=O)[nH]c(=O)c3Cc3ccccc3)CC2)c(C(F)(F)F)n1 (centres unmarked) [Example 75] | 223
5 | O=c1[nH]c(C2CC=C(c3ccc(S(=O)(=O)N4CCCC4)cc3F)CC2)c(Cc2ccccc2)c(=O)[nH]1 (centres unmarked) [Example 100] | 1600
6 | O=c1[nH]c(C2CC=C(c3cc(CO)ccc3Cl)CC2)c(Cc2ccccc2)c(=O)[nH]1 (centres unmarked) [Example 28] | 150
7 | O=c1[nH]c(C2CC=C(c3ccc(OC4CC4)cc3F)CC2)c(Cc2ccccc2)c(=O)[nH]1 (centres unmarked) [Example 94] | 200
8 | O=c1[nH]c(C2CC=C(c3ccc(OCCO)cc3Cl)CC2)c(Cc2ccccc2)c(=O)[nH]1 (centres unmarked) [Example 86] | 1160
9 | COc1ccc(C2=CCC(c3[nH]c(=O)[nH]c(=O)c3Cc3ccccc3)CC2)c(Cl)c1 (centres unmarked) [Example 29] | 12
10 | Cc1ccncc1C1=CCC(c2[nH]c(=O)[nH]c(=O)c2Cc2ccccc2)CC1 (centres unmarked) [Example 30] | 50
11 | O=c1[nH]c(C2CC=C(c3ccccc3OC(F)(F)F)CC2)c(Cc2ccccc2)c(=O)[nH]1 (centres unmarked) [Example 26] | 50
12 | O=c1[nH]c([C@@H]2CC=C(c3ccc(Cl)cc3C(F)(F)F)CC2)c(Cc2ccccc2)c(=O)[nH]1 (single isomer, unassigned) [Example 110] | 38
13 | Cc1nn(C)cc1C1=CCC(c2[nH]c(=O)[nH]c(=O)c2Cc2ccccc2)CC1 (centres unmarked) [Example 58] | 520
14 | CC(C)Cn1nccc1C1=CCC(c2[nH]c(=O)[nH]c(=O)c2Cc2ccccc2)CC1 (centres unmarked) [Example 62] | 884
15 | Cc1cc(C2=CCC(c3[nH]c(=O)[nH]c(=O)c3Cc3ccccc3)CC2)n(C)n1 (centres unmarked) [Example 63] | 632
16 | N#Cc1ccc(C2=CC[C@H](c3[nH]c(=O)[nH]c(=O)c3Cc3ccccc3)CC2)c(Cl)c1 (single isomer, unassigned) [Example 39] | 69
17 | Cn1nccc1C1=CCC(c2[nH]c(=O)[nH]c(=O)c2Cc2ccccc2)CC1 (centres unmarked) [Example 31] | 120
18 | COc1ccc(C2=CCC(c3[nH]c(=O)[nH]c(=O)c3Cc3ccccc3)CC2)c(C(F)(F)F)c1 (centres unmarked) [Example 17] | 280
19 | O=c1[nH]c(C2CC=C(c3cccnc3N3CCCCC3)CC2)c(Cc2ccccc2)c(=O)[nH]1 (centres unmarked) [Example 43, 5-Benzyl-6-(4-(2-(piperidin-1-yl)pyridin-3-yl)cyclohex-3-en-1-yl)pyrimidine-2,4(1H,3H)-dione] | 150
20 | Cc1ccccc1C1=CCC(c2[nH]c(=O)[nH]c(=O)c2Cc2ccccc2)CC1 (centres unmarked) [Example 13] | 83

Row | Structure (SMILES) | Ki [nM]
21 | O=c1[nH]c(C2CC=C(c3ccc(F)cc3)CC2)c(Cc2ccccc2)c(=O)[nH]1 (centres unmarked) [Example 3] | 460
22 | CNS(=O)(=O)c1ccc(C2=CCC(c3[nH]c(=O)[nH]c(=O)c3Cc3ccccc3)CC2)c(F)c1 (centres unmarked) [Example 98] | 110
23 | COc1ccccc1C1=CCC(c2[nH]c(=O)[nH]c(=O)c2Cc2ccccc2)CC1 (centres unmarked) [Example 18] | 260
24 | O=c1[nH]c(C2CC=C(c3ccc(Cl)cc3C(F)(F)F)CC2)c(Cc2cccc(C(F)(F)F)c2)c(=O)[nH]1 (centres unmarked) [Example 114, 6-(4′-chloro-2′-(trifluoromethyl)-2,3,4,5-tetrahydro-[1,1′-biphenyl]-4-yl)-5-(3-(trifluoromethyl)benzyl)pyrimidine-2,4(1H,3H)-dione] | 121
25 | C[C@@H]1CCCN(c2ncccc2C2=CCC(c3[nH]c(=O)[nH]c(=O)c3Cc3ccccc3)CC2)C1 (some centres unmarked) [Example 47] | 400
26 | O=c1[nH]c(C2CC=C(c3ccccc3Cl)CC2)c(Cc2ccccc2)c(=O)[nH]1 (centres unmarked) [Example 8] | 52
27 | Cn1ncc2cccc(C3=CCC(c4[nH]c(=O)[nH]c(=O)c4Cc4ccccc4)CC3)c21 (centres unmarked) [Example 89] | 433
28 | CCOc1ccc(C2=CCC(c3[nH]c(=O)[nH]c(=O)c3Cc3ccccc3)CC2)c(C(F)(F)F)c1 (centres unmarked) [Example 53] | 51
29 | O=c1[nH]c(C2CC=C(c3ccc(Cl)cc3F)CC2)c(Cc2ccccc2)c(=O)[nH]1 (centres unmarked) [Example 81] | 400
30 | COc1cc(Cl)ccc1C1=CCC(c2[nH]c(=O)[nH]c(=O)c2Cc2ccccc2)CC1 (centres unmarked) [Example 7] | 38
31 | O=c1[nH]c(C2CC=C(c3cncs3)CC2)c(Cc2ccccc2)c(=O)[nH]1 (centres unmarked) [Example 4] | 1300
32 | O=c1[nH]c(C2CC=C(c3cccc(Cl)c3Cl)CC2)c(Cc2ccccc2)c(=O)[nH]1 (centres unmarked) [Example 2] | 99
33 | Cn1cc(C2=CCC(c3[nH]c(=O)[nH]c(=O)c3Cc3ccccc3)CC2)c(C(F)(F)F)n1 (centres unmarked) [Example 77] | 170
34 | Cn1ncc2c(C3=CCC(c4[nH]c(=O)[nH]c(=O)c4Cc4ccccc4)CC3)cccc21 (centres unmarked) [Example 61] | 485
35 | O=c1[nH]c(C2CC=C(c3ccc(OCC4CC4)cc3Cl)CC2)c(Cc2ccccc2)c(=O)[nH]1 (centres unmarked) [Example 85, 5-benzyl-6-(2′-chloro-4′-(cyclopropylmethoxy)-2,3,4,5-tetrahydro-[1,1′-biphenyl]-4-yl)pyrimidine-2,4(1H,3H)-dione] | 1400
36 | O=c1[nH]c([C@H]2CC=C(c3ccc(Cl)cc3C(F)(F)F)CC2)c(Cc2ccccc2)c(=O)[nH]1 (single isomer, unassigned) [Example 109] | 30
37 | CS(=O)(=O)c1ccc(C2=CCC(c3[nH]c(=O)[nH]c(=O)c3Cc3cccc(N4CCCC4)n3)CC2)c(F)c1 (centres unmarked) [Example 117] | 559
38 | C[C@H]1CCCN(c2ncccc2C2=CCC(c3[nH]c(=O)[nH]c(=O)c3Cc3ccccc3)CC2)C1 (some centres unmarked) [Example 48] | 130
39 | Cc1ccc(C2=CCC(c3[nH]c(=O)[nH]c(=O)c3Cc3ccccc3)CC2)c(N2CCCC2)n1 (centres unmarked) [Example 50] | 14
40 | CS(=O)(=O)c1ccc(C2=CCC(c3[nH]c(=O)[nH]c(=O)c3Cc3ccccc3)CC2)c(F)c1 (centres unmarked) [Example 73] | 70

Target: T2, GR (Homo sapiens, UniProt P04150)
T2 sequence (P04150 1-777): T1 sequence (P04150 1-777)
Test: GR binding

Row | Structure (SMILES) | IC50 [nM]
41 | CC(C)Oc1cc(C(F)(F)F)ccc1C1=CCC(c2[nH]c(=O)[nH]c(=O)c2Cc2ccccc2)CC1 (centres unmarked) [Example 59] | 134
42 | CN(C)c1ncccc1C1=CCC(c2[nH]c(=O)[nH]c(=O)c2Cc2ccccc2)CC1 (centres unmarked) [Example 118] | 0.76
43 | O=c1[nH]c(C2CC=C(c3ccc4c(c3)OCCO4)CC2)c(Cc2ccccc2)c(=O)[nH]1 (centres unmarked) [Example 65] | 103
44 | O=c1[nH]c(C2CC=C(c3ccc4ncsc4c3)CC2)c(Cc2ccccc2)c(=O)[nH]1 (centres unmarked) [Example 64] | 142
45 | O=c1[nH]c(C2CC=C(c3ccc(OC(F)F)cc3Cl)CC2)c(Cc2ccccc2)c(=O)[nH]1 (centres unmarked) [Example 108] | 5.4
46 | O=c1[nH]c(C2CC=C(c3cccc4nncn34)CC2)c(Cc2ccccc2)c(=O)[nH]1 (centres unmarked) [Example 88] | 483
47 | CS(=O)(=O)c1ccc(C2=CCC(c3[nH]c(=O)[nH]c(=O)c3Cc3ccccc3)CC2)c(Cl)c1 (centres unmarked) [Example 106] | 2.1
48 | CNS(=O)(=O)c1cc(C(F)(F)F)ccc1C1=CCC(c2[nH]c(=O)[nH]c(=O)c2Cc2ccccc2)CC1 (centres unmarked) [Example 96] | 5090
49 | CN(C)S(=O)(=O)c1cc(C(F)(F)F)ccc1C1=CCC(c2[nH]c(=O)[nH]c(=O)c2Cc2ccccc2)CC1 (centres unmarked) [Example 97] | 2560
50 | Cc1nn(C)c(C)c1C1=CCC(c2[nH]c(=O)[nH]c(=O)c2Cc2ccccc2)CC1 (centres unmarked) [Example 80] | 295
51 | O=c1[nH]c(C2CC=C(c3ccc(OCC4CC4)cc3C(F)(F)F)CC2)c(Cc2ccccc2)c(=O)[nH]1 (centres unmarked) [Example 95] | 23
52 | O=c1[nH]c(C2CC=C(c3ccc(OC4CC4)cc3Cl)CC2)c(Cc2ccccc2)c(=O)[nH]1 (centres unmarked) [Example 93] | 10
53 | CN(C)c1ccc(C2=CCC(c3[nH]c(=O)[nH]c(=O)c3Cc3ccccc3)CC2)cn1 (centres unmarked) [Example 70] | 142
